Where two headings read alike, the source gives them in different places.
How the values were obtained:
A/WSN/1933 (H1N1) virus = experiment: microbe, parasite or virus in culture; assay type: cell-based, influenza A virus; conditions: for IC50 / IC90: Influenza A virus
in vitro = conditions: dog, CC50 (50% cytotoxicity concentration), MDCK cells, WST-1 assay
[1] = in vivo; cited from earlier work
[2] = tested on: recombinant wild-type WSN (rWSN); experiment: microbe, parasite or virus in culture; assay type: cell-based; conditions: Influenza A virus, H1N1 / WSN, read-out: IC50 (μM) WT rWSM (H1N1)
A/Tex/131 (H3N2) = experiment: microbe, parasite or virus in culture; assay type: cell-based; conditions: Influenza A virus, H3N2, MDCK
A/Udorn/307/1972 (H3N2) = experiment: microbe, parasite or virus in culture; assay type: cell-based; conditions: Influenza A virus, H3N2, MDCK
NP-NP interaction = NP-NP interaction (Influenza A virus, UniProt P15682); assay type: biochemical
NP-NP interaction, sequence (P15682 whole entry, looked up): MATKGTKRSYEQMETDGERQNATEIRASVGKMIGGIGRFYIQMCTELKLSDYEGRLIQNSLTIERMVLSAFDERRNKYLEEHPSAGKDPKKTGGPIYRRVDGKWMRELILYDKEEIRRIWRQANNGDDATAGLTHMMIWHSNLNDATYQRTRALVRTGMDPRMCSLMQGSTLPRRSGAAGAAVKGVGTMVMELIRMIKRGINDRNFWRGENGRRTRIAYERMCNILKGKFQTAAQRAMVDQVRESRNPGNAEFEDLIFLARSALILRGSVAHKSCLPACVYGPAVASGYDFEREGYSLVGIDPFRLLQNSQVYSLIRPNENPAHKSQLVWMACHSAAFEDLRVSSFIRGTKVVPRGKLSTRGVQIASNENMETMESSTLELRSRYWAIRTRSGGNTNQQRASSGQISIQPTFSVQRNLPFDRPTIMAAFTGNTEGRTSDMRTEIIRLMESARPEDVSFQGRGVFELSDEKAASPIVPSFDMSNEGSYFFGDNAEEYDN

A/Anhui/1/2013(H7N9) = experiment: microbe, parasite or virus in culture; assay type: cell-based; conditions: Influenza A virus, H7N9, MDCK
[3] = tested on: A/Ontario/6118/1968 (H8N4); experiment: microbe, parasite or virus in culture; assay type: cell-based; conditions: Influenza A virus, H8N4, MDCK
A/England/1/1956 (H11N6) = experiment: microbe, parasite or virus in culture; assay type: cell-based; conditions: Influenza A virus, MDCK
[4] = tested on: A/Ck/yamaguchi/7/2004 (H5N1); experiment: microbe, parasite or virus in culture; assay type: cell-based; conditions: Influenza A virus, H5N1, MDCK
[5] = tested on: influenza A/WSN/1933 (H1N1) virus; set-up: species or system Balb/c mice; conditions: mouse, in vivo
NP-RNA interaction = NP-RNA interaction (Influenza A virus, UniProt P15682); assay type: biochemical
NP-RNA interaction, sequence (P15682 whole entry, looked up): as above

A/Germany/N/1949 (H10N7) = experiment: microbe, parasite or virus in culture; assay type: cell-based; conditions: Influenza A virus, MDCK
[6] = tested on: A/Astrakhan/263/1982 (H14N15); experiment: microbe, parasite or virus in culture; assay type: cell-based; conditions: Influenza A virus, MDCK
[7] = tested on: virus life cycle in MDCK cells; assay type: cell-based
CRM1 binding to NP = CRM1 binding to NP (Influenza A virus, UniProt P15682); assay type: biochemical
CRM1 binding to NP, sequence (P15682 whole entry, looked up): as above

[8] = tested on: Influenza A/WSN/1933 (H1N1) virus; assay type: cell-based
[9] = mouse plasma
NP-Flag = NP-Flag (Influenza A virus, UniProt P15682); assay type: binding
NP-Flag, sequence (P15682 whole entry, looked up): as above

[10] = tested on: A/Alberta/60/1976 (H12N5); experiment: microbe, parasite or virus in culture; assay type: cell-based; conditions: Influenza A virus, MDCK
vRNP activity = vRNP activity (Influenza A virus, UniProt P15682); assay type: cell-based, influenza A/WSN/1933 (H1N1)
vRNP activity, sequence (P15682 whole entry, looked up): as above

[11] = tested on: A/Massachusetts/3740/1965 (H6N2); experiment: microbe, parasite or virus in culture; assay type: cell-based; conditions: Influenza A virus, H6N2, MDCK
viral protein expression = assay type: cell-based
[12] = tested on: vRNA encoding the PB2 subunit; assay type: cell-based, A/WSN/1933 (H1N1)
[13] = tested on: A/California/7/2009 virus (H1N1); experiment: microbe, parasite or virus in culture; assay type: cell-based; conditions: Influenza A virus, H1N1, MDCK
[14] = target: vRNA-induced NP oligomerization (Influenza A virus, UniProt P15682); assay type: biochemical
vRNA-induced NP oligomerization, sequence (P15682 whole entry, looked up): as above

[15] = tested on: nuclear export of NP-mRFP-Flag; experiment: in vitro nuclear export assay, digitonin-permeabilized HeLa cells; assay type: cell-based; conditions: with HeLa cell lysate, 42% with lysate alone
Experimental: HeLa cells were attached to glass cover slips at 37°C for 24 h and then transiently transfected with NP-mRFP-Flag/pCAGGS. After 48 h, cells were washed twice with cold transport buffer (20 mM HEPES (pH 7.4), 110 mM potassium acetate, 2 mM magnesium acetate, 1 mM EGTA (pH 7.4), 2 mM DTT, 1 μg/mL aprotinin, 1 μg/mL leupeptin, and 1 μg/mL pepstatin) and permeabilized with digitonin (50 μg/mL; Sigma) in transport buffer for 5 min on ice. The cells were then washed with cold transport buffer and incubated with apyrase (10 U/mL; Sigma) for 5 min on ice. After washing twice with cold transport buffer, the cells were incubated in cold transport buffer for 10 min on ice before addition of a the reaction mixture (40 μg HeLa cell lysate, 10 mg/mL bovine serum albumin (BSA), 10 mM ATP, 5 mM creatine phosphate, 0.64 U creatine kinase) containing (or not) the test compounds. The mixture was the incubated at 30°C for 1 h. After washing three times with cold transport buffer, mRFP fluorescence was observed under a confocal laser scanning microscope (FV 1000; Olympus). The fluorescence intensity in the nuclei was analyzed with MetaMorph software (Molecular Devices Inc., Downingtown, PA). The fluorescence intensity of NP-mRFP-Flag was quantified in >100 nuclei in each of three independent experiments.

in vivo = conditions: Balb/c, mouse, 10 mg/kg
NP = NP (Influenza A virus, UniProt P15682); assay type: cell-based, A/WSN/1933 (H1N1)
NP, sequence (P15682 whole entry, looked up): as above

[16] = MDCK, read-out: IC50 (SAR analysis of RK424)

## NC(=O)c1cc(-c2ccc(-c3ccccc3)cc2)nc2ccccc12 [Analog #1]
A/WSN/1933 (H1N1) virus
  antiviral effect relative to RK424 (SAR, in words): partial reduction in the antiviral effect
A/WSN/1933 (H1N1) virus; [16]
  IC50: 10100 ± 2070 nM
In vitro
  CC50: > 10000 nM

## O=C(O)c1cc(N2CCN(c3ccccc3)CC2)nc2ccccc12 [Analog #2]
A/WSN/1933 (H1N1) virus
  antiviral effect relative to RK424 (SAR, in words): complete loss of antiviral activity
A/WSN/1933 (H1N1) virus; [16]
  IC50: > 30000 nM
In vitro
  CC50: > 10000 nM

## O=C(O)c1ccnc(-c2ccc(-c3ccccc3)cc2)c1 [Analog #3]
A/WSN/1933 (H1N1) virus
  antiviral effect relative to RK424 (SAR, in words): complete loss of antiviral activity
A/WSN/1933 (H1N1) virus; [16]
  IC50: > 30000 nM
In vitro
  CC50: > 10000 nM

## O=C(O)c1cc(-c2ccc(Oc3ccccc3)cc2)nc2ccccc12 [Analog #4]
A/WSN/1933 (H1N1) virus
  antiviral effect relative to RK424 (SAR, in words): antiviral effect comparable with that of RK424
A/WSN/1933 (H1N1) virus; [16]
  IC50: 430 ± 150 nM
In vitro
  CC50: > 10000 nM

## NC(=O)c1nc(F)c[nH]c1=O [Analog T-705, favipiravir]
[1]
  recovery from morbidity, of that of the negative control group: 20%
  viral titers in the lung: 3.50 log10 PFU/mL

## Cc1onc(-c2ccccc2)c1C(=O)N1CCN(c2ccc([N+](=O)[O-])cc2Cl)CC1 [Nucleozin, nucleozin, reference compound]
[2]
  IC50: 0.2 ± 0.03 µM

## O=C(O)c1cc(-c2ccc(-c3ccccc3)cc2)nc2ccccc12 [RK424]
A/Tex/131 (H3N2)
  IC50: 590 ± 130 nM
  IC90: 980 ± 20 nM
A/Udorn/307/1972 (H3N2)
  IC50: 490 ± 190 nM
  IC90: 1230 ± 240 nM
NP-NP interaction
  binding of NP-HA to NP-mRFP-Flag beads: inhibited the binding of NP-HA to NP-mRFP-Flag beads in a dose-dependent manner
A/Anhui/1/2013(H7N9)
  IC50: 600 ± 120 nM
  IC90: 1140 ± 260 nM
[3]
  IC50: 490 ± 40 nM
  IC90: 910 ± 20 nM
A/England/1/1956 (H11N6)
  IC50: 570 ± 160 nM
  IC90: 940 ± 20 nM
[4]
  IC50: 570 ± 40 nM
  IC90: 930 ± 20 nM
[2]
  IC50: 0.38 ± 0.04 µM
[5]
  body weight change (in words): lost less weight
  reduction in the virus titer in the lung compared with controls: ~ 2 log
  virus titer in the lungs: 2.9×10^3 PFU/mL
NP-RNA interaction
  RNA binding, less than control samples: ~50%
A/Germany/N/1949 (H10N7)
  IC50: 580 ± 140 nM
  IC90: 1090 ± 80 nM
[6]
  IC50: 420 ± 60 nM
  IC90: 950 ± 10 nM
[7]
  antiviral effect by time of addition: prominent antiviral effect at an early stage in the virus life cycle
CRM1 binding to NP
  binding of CRM1 to NP-Flag beads: binding was inhibited
[8]
  effect on viral replication when added prior to virus inoculation: did not interfere with viral replication
[9]
  drug free from plasma protein: 0.4%
[9]; 50 μM, 37°C 30 min
  plasma protein binding: 99.6%
NP-Flag
  binding of wild-type NP-Flag to RK424 beads: bound to RK424 beads but not to control beads
A/WSN/1933 (H1N1) virus
  plaque formation (number and size): reduction in the number, but not the size, of viral plaques
A/WSN/1933 (H1N1) virus; MDCK
  IC50: 480 ± 190 nM
  IC90: 1190 ± 360 nM
A/WSN/1933 (H1N1) virus; read-out: IC50 expressed as ng/mL
  IC50: 163 ng/mL
A/WSN/1933 (H1N1) virus; read-out: IC90 expressed as ng/mL
  IC90: 390 ng/mL
[10]
  IC50: 620 ± 230 nM
  IC90: 1510 ± 870 nM
vRNP activity
  luciferase activity (vRNP activity): notable and dose-dependent reduction in luciferase activity
[11]
  IC50: 590 ± 90 nM
  IC90: 1590 ± 120 nM
Viral protein expression
  viral protein expression (western blotting): reduction in viral protein expression
[12]
  vRNA expression (FISH): significant reduction in vRNA expression
[13]
  IC50: 400 ± 70 nM
  IC90: 880 ± 20 nM
Cmax 39200 ng/mL vs 162.7 ng/mL
  Cmax relative to the in vitro IC50 concentration: more than 200 times
mice, 10 mg/kg
  bioavailability via the oral route relative to the intraperitoneal route, lower by: 50%
mice, intravenous 1 mg/kg, plasma
  free drug maximum concentration (Cfree max): 11.4 ng/mL
mice, oral route 10 mg/kg
  free drug maximum concentration (Cfree max): 46.4 ng/mL
mice, context intraperitoneal 10 mg/kg
  free drug maximum concentration (Cfree max): 156.8 ng/mL
[14]
  rate of NP oligomerization: dose-dependent reduction in the rate of oligomerization
[15]; 2 μM
  mRFP fluorescence intensity in the nucleus, % of buffer-treated cells: 76%
[15]; 10 μM
  mRFP fluorescence intensity in the nucleus, % of buffer-treated cells: 134%
In vivo
  Vd: 0.583 L/kg
In vivo; ip
  Cmax: 39200 ng/mL
In vitro
  CC50: ≥ 50000 nM
NP
  NP localization in virus-infected HeLa cells: nuclear rather than cytoplasmic localization of NP

## CCC(=C/[C@H](C)C/C=C/C(C)=C/[C@@H](C)C(=O)[C@@H](C)[C@H](O)[C@@H](C)C/C(C)=C/C(=O)O)/C=C/[C@@H]1OC(=O)C=C[C@@H]1C [leptomycin B, reference compound]
CRM1 binding to NP
  binding of CRM1 to NP-Flag beads: binding was inhibited
[15]; concentration not given
  mRFP fluorescence intensity in the nucleus, % of buffer-treated cells: 97%

## CCOC(=O)C1=C[C@@H](OC(CC)CC)[C@H](NC(C)=O)[C@@H](N)C1 [oseltamivir phosphate, reference compound]
[5]
  body weight change (in words): no weight loss
vRNP activity
  luciferase activity (vRNP activity): did not significantly inhibit luciferase activity
NP
  NP localization in virus-infected HeLa cells: NP localized in both the nucleus and cytoplasm

Source: article PMC4519322 (PLoS Pathogens, 2015)
